Active and inactive are the calls of the source. How the calls were made is not given here. Where only a bound is given, the exact number is not on record here.

Sequence of Mu-type opioid receptor (Homo sapiens) + Delta-type opioid receptor (Homo sapiens) (P35372 whole entry, looked up): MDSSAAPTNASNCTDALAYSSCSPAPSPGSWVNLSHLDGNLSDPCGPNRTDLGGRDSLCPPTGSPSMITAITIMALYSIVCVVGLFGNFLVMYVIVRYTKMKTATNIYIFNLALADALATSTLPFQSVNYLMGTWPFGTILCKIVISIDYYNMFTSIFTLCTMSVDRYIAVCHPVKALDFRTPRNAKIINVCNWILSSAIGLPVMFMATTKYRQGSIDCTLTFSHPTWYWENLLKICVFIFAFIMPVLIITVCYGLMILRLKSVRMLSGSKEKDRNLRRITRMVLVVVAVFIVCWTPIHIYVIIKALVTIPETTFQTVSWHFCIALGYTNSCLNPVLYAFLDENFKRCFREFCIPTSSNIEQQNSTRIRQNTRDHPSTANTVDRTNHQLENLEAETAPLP
Sequence of Mu-type opioid receptor (Homo sapiens) + Delta-type opioid receptor (Homo sapiens) (P41143 whole entry, looked up): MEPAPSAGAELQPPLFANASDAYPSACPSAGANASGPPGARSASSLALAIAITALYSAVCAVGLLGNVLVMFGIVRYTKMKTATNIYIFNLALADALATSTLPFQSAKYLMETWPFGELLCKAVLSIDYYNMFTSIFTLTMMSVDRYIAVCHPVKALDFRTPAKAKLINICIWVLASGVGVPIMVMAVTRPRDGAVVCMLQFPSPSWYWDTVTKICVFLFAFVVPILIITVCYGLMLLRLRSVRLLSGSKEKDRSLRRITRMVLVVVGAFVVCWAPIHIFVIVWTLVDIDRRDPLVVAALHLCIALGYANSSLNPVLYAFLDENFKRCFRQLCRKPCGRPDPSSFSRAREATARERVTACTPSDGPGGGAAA

The assay addresses Mu-type opioid receptor (Homo sapiens) + Delta-type opioid receptor (Homo sapiens) (UniProt P35372+P41143). The assay can be described thus: agonists of MOR-DOR heterodimerization, dose response, counter-screen for MC4R biased agonist project, cell-based, luminescence (AID 602264). The settings on record: cell-based OPRM1-OPRD1 heterodimerization.
As for `Cc1ccc(-c2csc3nc4c5ccccc5c(NCCCN(C)C)nn4c(=O)c23)cc1`, the EC50 – broadly, the concentration at which the effect is half-maximal – was > 64.6 µM (inactive).

Turning to `COc1ccccc1-c1cc(NC(C)=O)c2ncc(-c3cccc(C(F)(F)F)c3)n2c1`, the EC50 was > 92.5 µM (inactive).

As to `COc1ccc(C(NC(=O)C2CCN(CCOc3ccc(Cl)cc3Cl)CC2)c2ccccc2C)cn1` (centres undefined), the EC50 was > 64.6 µM (inactive).

For `Cc1ccc2[nH]c(=O)c3cc(C(=O)N(CCCOC(C)C)Cc4ccco4)sc3c2c1`, the EC50 is > 92.5 µM (inactive).

With `N#C/C(=C\c1cn(CCOc2ccccc2F)c2ccccc12)C(=O)NCc1cccs1`, the EC50 was > 92.4 µM (inactive).

In the case of `Cc1cc(N2CCN(C(=O)c3ccco3)CC2)n2nc(-c3cccc(Cl)c3)cc2n1`, the EC50 is > 64.6 µM (inactive).

`COc1cccc(/C=C2/SC(=S)N(CCCC(=O)Nc3ccc(O)cc3)C2=O)c1`: the EC50 is > 92.5 µM (inactive).

Turning to `CC(=O)Nc1cc(-c2cccc(C(=O)NCCN(C)C)c2)cn2c(-c3cccc(C(F)(F)F)c3)cnc12`, the EC50 was > 92.5 µM (inactive).

For `COc1ccc(NC(=O)Nc2nnc(-c3ccccc3SCc3ccccc3)s2)cc1`, the EC50 is > 92.5 µM (inactive).

In the case of `CC(C)CC(N)c1csc(Nc2ccc(C(F)(F)F)cn2)n1` (centres undefined), the EC50 is > 92.5 µM (inactive).

As for `CCC(C)(C)c1ccc(OCCCC[n+]2cccc(C)c2C)c(C(C)(C)CC)c1`, the EC50 is > 64.6 µM (inactive).

Turning to `O=C1c2cccc3cccc(c23)C(=O)N1CC1CCN(CC(O)COc2ccc3ccccc3c2)CC1` (centres undefined), the EC50 was > 10.3 µM (inactive).

Regarding `CCN1CCN(CCNC(=O)c2ccc(/C=C3\Sc4ccccc4N(Cc4ccccc4F)C3=O)cc2)CC1`, the EC50 was > 92.5 µM (inactive).

Consider `Cc1ccccc1NC(=O)c1ccc(COc2ccc3c(C)cc(=O)oc3c2)cc1`, for which the EC50 is > 64.6 µM (inactive).

Turning to `Cc1cccc(NC(=S)NC(=O)C(c2ccccc2)c2ccccc2)n1`, the EC50 is > 92.5 µM (inactive).

As for `COc1cc(-c2cc(NC=O)c3ncc(-c4cccc(C(F)(F)F)c4)n3c2)cc(OC)c1OC`, the EC50 is > 64.6 µM (inactive).

For the molecule `COc1ccccc1-c1cc(NC=O)c2ncc(-c3cccc(C(F)(F)F)c3)n2c1`, the EC50 is > 64.6 µM (inactive).

As for `CC(=O)Nc1cc(-c2ccc(C(=O)NC3CC3)cc2)cn2c(-c3cccc(C(C)=O)c3)cnc12`, the EC50 is > 64.6 µM (inactive).

On to `COc1ccc(-c2sc3ccc(N4CCOCC4)cc3c2C#CC2(O)CCCCC2)cc1`, for which the EC50 is > 64.6 µM (inactive).

In the case of `COc1cccc(-c2cnc3c(NC(C)=O)cc(-c4cc(OC)c(OC)c(OC)c4)cn23)c1`, the EC50 was > 64.6 µM (inactive).

For `CCc1ccc(OCCNc2cc(N3CCNC(C)C3)ccc2[N+](=O)[O-])cc1` (centres undefined), the EC50 is > 92.5 µM (inactive).

As to `OC(CNCCc1ccc(C(F)(F)F)cc1)COC(c1ccccc1)c1ccccc1` (centres undefined), the EC50 is > 64.6 µM (inactive).

`CN(C)CCOc1ccc(-c2c(-c3ccsc3)sc3ccccc23)cc1`: the EC50 is > 92.5 µM (inactive).

As for `FC(F)(F)c1cccnc1Oc1ccc(C2=NCCS2)cc1`, the EC50 was > 92.4 µM (inactive).

Consider `COc1cc(NS(=O)(=O)c2ccc(NC(=S)NC(=O)c3sc4ccccc4c3Cl)cc2)ncn1`, for which the EC50 was > 92.4 µM (inactive).

Regarding `Cc1ccc2nc(Nc3ccc4[nH]c(=O)[nH]c4c3)c(-n3nc(C)cc3C)nc2c1`, the EC50 was > 64.6 µM (inactive).

In the case of `COc1ccc(NC(=O)Nc2nc(C(N)Cc3ccc(C(F)(F)F)cc3)cs2)cc1` (centres undefined), the EC50 is > 64.6 µM (inactive).

Consider `O=CNc1cc(-c2ccsc2)cn2c(-c3ccccc3)cnc12`, for which the EC50 was > 92.5 µM (inactive).

Turning to `Oc1ccc(N2CCN(c3ncnc4sc(-c5ccccc5)cc34)CC2)cc1`, the EC50 was > 92.4 µM (inactive).

In the case of `NC(CCc1ccccc1)c1csc(Nc2ccc(C(=O)c3ccccc3)cc2)n1` (centres undefined), the EC50 was > 92.5 µM (inactive).

For the molecule `CN(C)CCOc1ccc(-c2c(-c3ccccc3)sc3ccccc23)cc1`, the EC50 is > 92.5 µM (inactive).

Turning to `O=C(CSc1ccccc1)Nc1nnc(/C=C/c2ccccc2)s1`, the EC50 is > 92.5 µM (inactive).

In the case of `Cc1ccc(C(=O)Nc2nc(C(N)Cc3ccc(C(F)(F)F)cc3)cs2)cc1` (centres undefined), the EC50 was > 64.6 µM (inactive).

As to `COc1cccc(-c2cnc3c(NC(C)=O)cc(-c4ccsc4)cn23)c1`, the EC50 is > 92.5 µM (inactive).

For `COc1ccc(-c2oc3ccc(-c4ccc5c(c4)OCO5)cc3c2C#CC2(O)CCCCC2)cc1`, the EC50 was > 64.6 µM (inactive).

Turning to `CN(C)CCCN(C(=O)c1cc2cc([N+](=O)[O-])ccc2s1)c1nc2cc3c(cc2s1)OCCO3`, the EC50 was > 92.5 µM (inactive).

As to `CCCCCCCCNS(=O)(=O)CCNCCc1ccccc1`, the EC50 was > 92.4 µM (inactive).

As to `CC(=O)c1cccc(-c2cnc3c(NC=O)cc(-c4ccccc4F)cn23)c1`, the EC50 was > 64.6 µM (inactive).

For the molecule `Nc1c(-c2cccs2)cnn1-c1nc(-c2ccc(Cl)cc2Cl)cs1`, the EC50 is > 64.6 µM (inactive).

Regarding `CCOC(=O)C(=CNc1ccc2c(c1)nnn2-c1ccc(Cl)cc1)C(=O)OCC`, the EC50 is > 64.6 µM (inactive).

As for `Cc1ccc(NC(=O)c2ccccc2OCC(=O)c2ccc(F)cc2)cc1`, the EC50 is > 92.5 µM (inactive).

For the molecule `C/C(=N\NC(=O)COc1cccc2ccccc12)c1cccs1`, the EC50 was > 64.6 µM (inactive).

In the case of `O=C(NC(c1ccc(Cl)cc1)c1ccccn1)C1CCN(CCOc2ccc(Cl)cc2Cl)CC1` (centres undefined), the EC50 was > 92.4 µM (inactive).

Consider `CC(=O)Nc1cc(-c2cccnc2)cn2c(-c3ccc(F)cc3)cnc12`, for which the EC50 is > 64.6 µM (inactive).

`COc1ccc(CNCCc2ccc(Cl)cc2)cc1OCc1ccccc1`: the EC50 is > 92.5 µM (inactive).

Consider `Clc1ccccc1/C=N/NC1=Nc2cccc3cccc1c23`, for which the EC50 is > 64.6 µM (inactive).

With `COc1ccc2[nH]c3c(C)c4ccncc4c(C)c3c2c1`, the EC50 was > 64.7 µM (inactive).

`O=C(N=Nc1c(O)n(Cc2ccccc2)c2ccccc12)c1cc2ccccc2cc1O`: the EC50 was > 92.5 µM (inactive).

Regarding `Cc1ccc(C(=O)Cn2c(C(=O)/C=C/c3ccccc3)nc3ccccc32)cc1`, the EC50 is > 64.6 µM (inactive).

As to `NC(Cc1ccc(Cl)cc1)c1csc(Nc2ccc(-c3ccccc3)nn2)n1` (centres undefined), the EC50 is > 92.4 µM (inactive).

Regarding `COc1cc(/C=C2\Oc3ccc(C#Cc4ccc(O)cc4)cc3C2=O)cc(OC)c1`, the EC50 is > 92.5 µM (inactive).

In the case of `CC(=O)Nc1cc(-c2ccc(C(=O)NC3CC3)cc2)cn2c(-c3cccc(C(F)(F)F)c3)cnc12`, the EC50 was > 64.6 µM (inactive).

Consider `COc1ccc(-c2cc(NC(C)=O)c3ncc(-c4cccc(C(C)=O)c4)n3c2)cc1OC`, for which the EC50 was > 64.6 µM (inactive).

With `CC1(C)Oc2ccc3ccc(=O)oc3c2/C(=C/Nc2ccc(O)cc2)C1=O`, the EC50 was > 64.6 µM (inactive).

As for `O=C1C2=C(NC(=S)NC2c2ccc(Cl)cc2)NC(c2ccc(Cl)cc2)N1c1ccc(Cl)cc1` (centres undefined), the EC50 entry was “inactive”.

Turning to `Clc1ccc(C[n+]2c(-c3ccccc3)cc(-c3ccccc3)cc2-c2ccccc2)cc1`, the EC50 is > 92.5 µM (inactive).

Take `CCC(C)NC(=O)c1c(N)n(/N=C/c2cccnc2)c2nc3ccccc3nc12` (centres undefined): the EC50 was > 92.4 µM (inactive).

`COc1cc(-c2cc(NC=O)c3ncc(-c4ccccc4)n3c2)cc(OC)c1OC`: the EC50 is > 64.6 µM (inactive).

Turning to `CCCCCCOc1ccc(/C(C)=N/NC2=NCCN2)cc1`, the EC50 is > 92.4 µM (inactive).

On to `O=C(NC(c1ccc(Cl)cc1)c1cccnc1)C1CCN(CCOc2ccc(Cl)cc2Cl)CC1` (centres undefined), for which the EC50 is > 92.4 µM (inactive).

In the case of `Cc1ccc(OCC(=O)NC(=S)Nc2cccc(NC(=O)c3ccccc3)c2)cc1`, the EC50 was > 64.6 µM (inactive).

`Cc1ccc(-c2nnc(-c3ccc(NC(=O)Cc4cccs4)cc3)o2)cc1`: the EC50 is > 64.6 µM (inactive).

On to `Cc1c(CN2CCC(CO)(CCOc3ccccc3)CC2)[nH]c2c(Cl)cccc12`, for which the EC50 was > 92.5 µM (inactive).

As for `COc1cccc(-c2cnc3c(NC=O)cc(-c4cc(OC)c(OC)c(OC)c4)cn23)c1`, the EC50 was > 92.5 µM (inactive).

Turning to `O=C(CCN1C(=O)/C(=C/C=C/c2ccccc2)SC1=S)Nc1ccccn1`, the EC50 is > 92.5 µM (inactive).

As for `CCn1c(SCC(=O)Nc2ccc(C(C)=O)cc2)nc2nc3c(cc2c1=O)CCCC3`, the EC50 was > 64.6 µM (inactive).

Take `COc1ccc(-c2cc(NC(C)=O)c3ncc(-c4ccc(OC)c(OC)c4)n3c2)cc1OC`: the EC50 was > 64.6 µM (inactive).

For `CC(=O)Nc1cc(-c2ccc(C(=O)N3CCOCC3)cc2)cn2c(-c3ccccc3)cnc12`, the EC50 is > 92.5 µM (inactive).

`Cc1cc(C)nc(Nc2nc(C(N)Cc3ccc(C(F)(F)F)cc3)cs2)n1` (centres undefined): the EC50 was > 92.5 µM (inactive).

As to `N#C/C(=C\c1ccc(-c2ccc(F)cc2)o1)C(=O)Nc1nc(-c2cccs2)cs1`, the EC50 is > 64.6 µM (inactive).

For the molecule `CCCCCCCCCCCCCCCC[N+](C)(C)Cc1ccc(F)cc1`, the EC50 was > 92.5 µM (inactive).

With `CC(=O)Nc1cc(-c2ccc(N(C)C)cc2)cn2c(-c3ccc(F)cc3)cnc12`, the EC50 was > 64.6 µM (inactive).

Turning to `Cc1ccccc1-c1nc(-c2ccc(NC(=O)c3ccc(Br)o3)cc2)no1`, the EC50 is > 92.5 µM (inactive).

On to `COc1cccc(-c2cnc3c(NC=O)cc(-c4ccoc4)cn23)c1`, for which the EC50 is > 64.6 µM (inactive).

As to `Cc1cc(C)c2sc(N(CCCN(C)C)C(=O)COc3ccc(Cl)cc3)nc2c1`, the EC50 was > 92.5 µM (inactive).

Turning to `CCN1CCN(Cc2ccc(NC(=O)c3cc(NC(=O)c4cncc(-c5ccc(C#N)cc5)c4)cc(OC)c3)cc2C(F)(F)F)CC1`, the EC50 was > 64.6 µM (inactive).

For the molecule `COc1cccc(-c2cnc3c(NC=O)cc(-c4ccc(O)c(OC)c4)cn23)c1`, the EC50 was > 64.6 µM (inactive).

Regarding `COc1ccc(-c2cc(NC(C)=O)c3ncc(-c4ccc(F)cc4)n3c2)cc1OC`, the EC50 was > 64.6 µM (inactive).

Regarding `CCOc1ccc(Cn2c3ccc(OC)cc3c3nc4ccccc4nc32)cc1`, the EC50 is > 64.6 µM (inactive).

For the origin of these results see PubChem BioAssay AID602264 (The Scripps Research Institute Molecular Screening Center, 2012).
